± gives the expanded uncertainty stated by the source.

For this series the following is noted: 298.15 K; 101.33 kPa; Liquid.
As to `CCOCCO` [2-ethoxyethan-1-ol], the molar volume is on record as 9.742e-05 ± 4e-08 m3/mol.
With `COCCO` [2-methoxyethan-1-ol] the figure was 7.926e-05 ± 3e-08 m3/mol; with `C1CCCCC1` [cyclohexane], 0.0001088 ± 9e-08 m3/mol; with `CCO` [ethanol], 5.866e-05 ± 5e-08 m3/mol.
On to `C1CCOC1` [tetrahydrofuran], for which the molar volume came to 8.174e-05 ± 4e-08 m3/mol.

The values are drawn from the NIST ThermoML archive (doi:10.1021/je100556t).
